In patent US20260262643A1, “HERBICIDAL BENZOXAZINES” (FMC CORPORATION, priority 2022, published 2026):

Legend:
sedge, umbrella = assay: Test B flooded paddy test; assay type: in vivo, Cyperus difformis; details: 250 g ai/ha, Flood, 13 days, 0 to 100 scale (0 no effect, 100 complete control)
In short: (§1)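 Percent weed or crop control, judged by eye on a 0–100 scale 13 days post-treatment, reflects compound added to a 3 cm flood maintained over 2-leaf plants in the greenhouse. Missing entries are marked with a dash.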

foxtail, giant [1] = assay: Test A postemergence; assay type: in vivo, Setaria faberi
In short: (§2)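 Seeds in loam–sand blend received a directed preemergence soil spray of compound in non-phytotoxic solvent with surfactant; postemergence plants (2–10 cm, one- to two-leaf stage) were sprayed with the same formulation. After 10 days in greenhouse, injury was rated visually versus untreated controls, 0 (no effect) to 100 (complete control).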

soybean [2] = assay: Test A preemergence; assay type: in vivo, Glycine max
In short: as §2

ragweed [3] = assay: Test A postemergence; assay type: in vivo, Ambrosia artemisiifolia
In short: as §2

blackgrass [4] = assay: Test A preemergence; assay type: in vivo, Alopecurus myosuroides
In short: as §2

blackgrass [5] = assay: Test A postemergence; assay type: in vivo, Alopecurus myosuroides
In short: as §2

wheat [6] = assay: Test A preemergence; assay type: in vivo, Triticum aestivum
In short: as §2

ryegrass, Italian [7] = assay: Test A preemergence; assay type: in vivo, Lolium multiflorum
In short: as §2

goosegrass [8] = assay: Test A preemergence; assay type: in vivo, Eleusine indica
In short: as §2

ryegrass, Italian [9] = assay: Test A postemergence; assay type: in vivo, Lolium multiflorum
In short: as §2

pigweed, palmer [10] = assay: Test A preemergence; assay type: in vivo, Amaranthus palmeri
In short: as §2

kochia [11] = assay: Test A postemergence; assay type: in vivo, Bassia scoparia
In short: as §2

horseweed = assay: Test A postemergence; assay type: in vivo, Erigeron canadensis
In short: as §2

oat, wild [12] = assay: Test A postemergence; assay type: in vivo, Avena fatua
In short: as §2

goosegrass [13] = assay: Test A postemergence; assay type: in vivo, Eleusine indica
In short: as §2

kochia [14] = assay: Test A preemergence; assay type: in vivo, Bassia scoparia
In short: as §2

foxtail, giant [15] = assay: Test A preemergence; assay type: in vivo, Setaria faberi
In short: as §2

galium = assay: Test A postemergence; assay type: in vivo, Galium aparine
In short: as §2

corn [16] = assay: Test A preemergence; assay type: in vivo, Zea mays
In short: as §2

barnyardgrass = assay: Test B flooded paddy test; assay type: in vivo, Echinochloa crus-galli; details: 250 g ai/ha, Flood, 13 days, 0 to 100 scale (0 no effect, 100 complete control)
In short: as §1

wheat [17] = assay: Test A postemergence; assay type: in vivo, Triticum aestivum
In short: as §2

corn [18] = assay: Test A postemergence; assay type: in vivo, Zea mays
In short: as §2

pigweed, palmer [19] = assay: Test A postemergence; assay type: in vivo, Amaranthus palmeri
In short: as §2

ducksalad = assay: Test B flooded paddy test; assay type: in vivo, Heteranthera limosa; details: 250 g ai/ha, Flood, 13 days, 0 to 100 scale (0 no effect, 100 complete control)
In short: as §1

rice = assay: Test B flooded paddy test; assay type: in vivo, Oryza sativa; details: 250 g ai/ha, Flood, 13 days, 0 to 100 scale (0 no effect, 100 complete control)
In short: as §1

ragweed [20] = assay: Test A preemergence; assay type: in vivo, Ambrosia artemisiifolia
In short: as §2

oat, wild [21] = assay: Test A preemergence; assay type: in vivo, Avena fatua
In short: as §2

soybean [22] = assay: Test A postemergence; assay type: in vivo, Glycine max
In short: as §2

[23] = 125 g ai/ha, postemergence, 10 days, visual injury, 0 to 100 scale (0 no effect, 100 complete control)
[24] = 500 g ai/ha, Postemergence, 0 to 100 scale
[25] = 125 g ai/ha, visual injury after 10 days, 0 to 100 scale, 0 is no effect, 100 is complete control
[26] = 500 g ai/ha, 0 to 100 scale (0 no effect, 100 complete control), 10 days
[27] = 125 g ai/ha, postemergence, 10 days, 0 to 100 scale, 0 no effect, 100 complete control
[28] = 500 g ai/ha, postemergence, 10 days, visual injury, 0 to 100 scale (0 no effect, 100 complete control)

Cc1cccc2c1O[C@@H](C)CN2C(=O)c1cc(-n2cncn2)ccc1F [Compound 50]
Plant response rating, Sedge, Umbrella (sedge, umbrella): 0 | Plant response rating, Foxtail, Giant (foxtail, giant [1]; [23]): 70 | Plant response rating, Foxtail, Giant (foxtail, giant [1]; [24]): 90 | Plant response rating, Soybean (soybean [2]; [25]): 30 | Plant response rating, Soybean (soybean [2]; [26]): 90 | Plant response rating, Ragweed (ragweed [3]; [23]): 20 | Plant response rating, Ragweed (ragweed [3]; [24]): 40 | Plant response rating, Blackgrass (blackgrass [4]; [25]): 40 | Plant response rating, Blackgrass (blackgrass [4]; [26]): 80 | Plant response rating, Blackgrass (blackgrass [5]; [23]): 50 | Plant response rating, Blackgrass (blackgrass [5]; [24]): 70 | Plant response rating, Wheat (wheat [6]; [25]): 0 | Plant response rating, Wheat (wheat [6]; [26]): 50 | Plant response rating, Ryegrass, Italian (ryegrass, Italian [7]; [25]): 80 | Plant response rating, Ryegrass, Italian (ryegrass, Italian [7]; [26]): 90 | Plant response rating, Goosegrass (goosegrass [8]; [25]): 90 | Plant response rating, Goosegrass (goosegrass [8]; [26]): 100 | Plant response rating, Ryegrass, Italian (ryegrass, Italian [9]; [23]): 50 | Plant response rating, Ryegrass, Italian (ryegrass, Italian [9]; [24]): 80 | Plant response rating, Pigweed, Palmer (pigweed, palmer [10]; [25]): 0 | Plant response rating, Pigweed, Palmer (pigweed, palmer [10]; [26]): 100 | Plant response rating, Kochia (kochia [11]; [23]): 10 | Plant response rating, Kochia (kochia [11]; [24]): 70 | Plant response rating, Horseweed (horseweed; [23]): 0 | Plant response rating, Horseweed (horseweed; [24]): 10 | Plant response rating, Oat, Wild (oat, wild [12]; [23]): 20 | Plant response rating, Oat, Wild (oat, wild [12]; [24]): 50 | Plant response rating, Goosegrass (goosegrass [13]; [23]): 50 | Plant response rating, Goosegrass (goosegrass [13]; [24]): 90 | Plant response rating, Kochia (kochia [14]; [25]): 0 | Plant response rating, Kochia (kochia [14]; [26]): 10 | Plant response rating, Foxtail, Giant (foxtail, giant [15]; [25]): 90 | Plant response rating, Foxtail, Giant (foxtail, giant [15]; [26]): 100 | Plant response rating, Galium (galium; [23]): 60 | Plant response rating, Galium (galium; [24]): 100 | Plant response rating, Corn (corn [16]; [25]): 0 | Plant response rating, Corn (corn [16]; [26]): 0 | Plant response rating, Barnyardgrass (barnyardgrass): 0 | Plant response rating, Wheat (wheat [17]; [23]): 40 | Plant response rating, Wheat (wheat [17]; [24]): 70 | Plant response rating, Corn (corn [18]; [23]): 30 | Plant response rating, Corn (corn [18]; [24]): 60 | Plant response rating, Pigweed, Palmer (pigweed, palmer [19]; [23]): 30 | Plant response rating, Pigweed, Palmer (pigweed, palmer [19]; [24]): 30 | Plant response rating, Ducksalad (ducksalad): 0 | Plant response rating, Rice (rice): 0 | Plant response rating, Ragweed (ragweed [20]; [25]): 0 | Plant response rating, Ragweed (ragweed [20]; [26]): 30 | Plant response rating, Oat, Wild (oat, wild [21]; [25]): 20 | Plant response rating, Oat, Wild (oat, wild [21]; [26]): 90 | Plant response rating, Soybean (soybean [22]; [23]): 100 | Plant response rating, Soybean (soybean [22]; [24]): 100

C[C@H]1CN(C(=O)c2cccc(-n3cnc(C(C)(C)C)n3)c2)c2cccc(Cl)c2O1 [Compound 92]
Plant response rating, Sedge, Umbrella (sedge, umbrella): 0 | Foxtail, Giant plant response rating (foxtail, giant [1]; [27]): 30 | Plant response rating, Foxtail, Giant (foxtail, giant [1]; [28]): 80 | Plant response rating, Soybean (soybean [2]; [25]): 50 | Plant response rating, Soybean (soybean [2]; [26]): 90 | Ragweed plant response rating (ragweed [3]; [27]): 60 | Plant response rating, Ragweed (ragweed [3]; [28]): 70 | Plant response rating, Blackgrass (blackgrass [4]; [25]): 80 | Plant response rating, Blackgrass (blackgrass [4]; [26]): 90 | Blackgrass plant response rating (blackgrass [5]; [27]): 70 | Plant response rating, Blackgrass (blackgrass [5]; [28]): 90 | Plant response rating, Wheat (wheat [6]; [25]): 30 | Plant response rating, Wheat (wheat [6]; [26]): 80 | Plant response rating, Ryegrass, Italian (ryegrass, Italian [7]; [25]): 100 | Plant response rating, Ryegrass, Italian (ryegrass, Italian [7]; [26]): 100 | Plant response rating, Goosegrass (goosegrass [8]; [25]): 100 | Plant response rating, Goosegrass (goosegrass [8]; [26]): 100 | Ryegrass, Italian plant response rating (ryegrass, Italian [9]; [27]): 50 | Plant response rating, Ryegrass, Italian (ryegrass, Italian [9]; [28]): 100 | Plant response rating, Pigweed, Palmer (pigweed, palmer [10]; [25]): 100 | Plant response rating, Pigweed, Palmer (pigweed, palmer [10]; [26]): 100 | Kochia plant response rating (kochia [11]; [27]): 80 | Plant response rating, Kochia (kochia [11]; [28]): 90 | Horseweed plant response rating (horseweed; [27]): 0 | Plant response rating, Horseweed (horseweed; [28]): 50 | Oat, Wild plant response rating (oat, wild [12]; [27]): 50 | Plant response rating, Oat, Wild (oat, wild [12]; [28]): 70 | Goosegrass plant response rating (goosegrass [13]; [27]): 30 | Plant response rating, Goosegrass (goosegrass [13]; [28]): 50 | Plant response rating, Kochia (kochia [14]; [25]): 70 | Plant response rating, Kochia (kochia [14]; [26]): 100 | Plant response rating, Foxtail, Giant (foxtail, giant [15]; [25]): 70 | Plant response rating, Foxtail, Giant (foxtail, giant [15]; [26]): 100 | Galium plant response rating (galium; [27]): 100 | Plant response rating, Galium (galium; [28]): 100 | Plant response rating, Corn (corn [16]; [25]): 30 | Plant response rating, Corn (corn [16]; [26]): 30 | Plant response rating, Barnyardgrass (barnyardgrass): 25 | Wheat plant response rating (wheat [17]; [27]): 40 | Plant response rating, Wheat (wheat [17]; [28]): 50 | Corn plant response rating (corn [18]; [27]): 30 | Plant response rating, Corn (corn [18]; [28]): 70 | Pigweed, Palmer plant response rating (pigweed, palmer [19]; [27]): 90 | Plant response rating, Pigweed, Palmer (pigweed, palmer [19]; [28]): 90 | Plant response rating, Ducksalad (ducksalad): 90 | Plant response rating, Rice (rice): 0 | Plant response rating, Ragweed (ragweed [20]; [25]): 0 | Plant response rating, Ragweed (ragweed [20]; [26]): 30 | Plant response rating, Oat, Wild (oat, wild [21]; [25]): 80 | Plant response rating, Oat, Wild (oat, wild [21]; [26]): 90 | Soybean plant response rating (soybean [22]; [27]): 90 | Plant response rating, Soybean (soybean [22]; [28]): 100
